Experiment [1] relates to acetylcholine effect on bronchi. Briefly: Inhibition of the effect of acetylcholine on bronchi (expiration resistance, Konzett-Rossler) in anaesthetised guinea pigs. The format is in vivo, guinea pig. The note with it: Cavia porcellus, iv, 5 min, 10 microgram/kg acetylcholine i.v. and intra-arterially 5 minutes after test substance, read-out: -log ED50 Bronchi (converted). The protocol: (§1) Substances with antimuscarinic properties inhibit the effects of agonists supplied exogenically or of acetylcholine, which is released from cholinergic nerve endings. The following is a description of an "in vivo" method which is suitable for the detection of cardioselective antimuscarinic agents.
(§2) Inhibition of the effect of acetylcholine on the bladder, bronchi and heart rate in guinea pigs
(§3) 5 minutes after the administration of the test substance, 10 microgram/kg of acetylcholine were simultaneously injected intravenously and intra-arterially into anaesthetised guinea pigs. The heart rate was recorded directly by extracorporeal derivation of the ECG, as were the expiration resistance according to Konzett-Rossler and the contraction of the exposed bladder. In order to determine the inhibition of the acetylcholine activity on the organs under investigation, dosage/activity curves were recorded and from them -log ED50 values were determined. For the results see Table II.

Experiment [2] has as its target muscarinic receptors in cerebral cortex. Briefly: Receptor binding test in vitro, 3H-NMS displacement, cerebral cortex homogenate. The note with it: rat cerebral cortex homogenate 1:3000; 0.3 nanomolar 3H-NMS; 30° C., 45 minutes; read-out: Receptor Binding Tests IC50 Cortex. The protocol: The organs were donated by male Sprague-Dawley rats weighing 180-220 g. After the heart and subman-dibular gland and cerebral cortex had been removed, all other steps were carried out in ice cold Hepes HCl buffer (pH 7.4; 100 millimolar NaCl, 10 millimolar MgCl2). The whole heart was cut up with scissors. All the organs were then homogenised in a Potter apparatus.
(§4) For the binding test the homogenised organs were diluted as follows:
The homogenised organs were incubated at a certain concentration of the radioligand and at a series of concentrations of the non-radioactive test substances in an Eppendorf centrifuge tube at 30° C. Incubation lasted 45 minutes. The radioligand used was 0.3 nanomolar ^3 H-N-methylscopolamine (^3 H-NMS). Incubation was ended by the addition of ice cold buffer followed by vaccum filtration. The filters were rinsed with cold buffer and their radioactivity was determined. It represents the sum of specific and non-specific binding of ^3 H-NMS.
The proportion of non-specific binding was defined as the radioactivity which was bound in the presence of 1 micromolar quinuclidinyl-benzylate. Each measurement was taken four times. The IC^50 values of the non-labelled test substances were determined graphically. They represent that concentration of test substance at which the specific binding of ^3 H-NMS to the muscarinic receptors in the various organs was inhibited by 50%.

Experiment [3] addresses T1, muscarinic receptors in heart (Rattus norvegicus, UniProt P10980).
T1 construct: The whole heart was cut up with scissors; from tissue; host or cells: whole heart of male Sprague-Dawley rats, homogenate diluted 1:400
T1 sequence (P10980 1-466): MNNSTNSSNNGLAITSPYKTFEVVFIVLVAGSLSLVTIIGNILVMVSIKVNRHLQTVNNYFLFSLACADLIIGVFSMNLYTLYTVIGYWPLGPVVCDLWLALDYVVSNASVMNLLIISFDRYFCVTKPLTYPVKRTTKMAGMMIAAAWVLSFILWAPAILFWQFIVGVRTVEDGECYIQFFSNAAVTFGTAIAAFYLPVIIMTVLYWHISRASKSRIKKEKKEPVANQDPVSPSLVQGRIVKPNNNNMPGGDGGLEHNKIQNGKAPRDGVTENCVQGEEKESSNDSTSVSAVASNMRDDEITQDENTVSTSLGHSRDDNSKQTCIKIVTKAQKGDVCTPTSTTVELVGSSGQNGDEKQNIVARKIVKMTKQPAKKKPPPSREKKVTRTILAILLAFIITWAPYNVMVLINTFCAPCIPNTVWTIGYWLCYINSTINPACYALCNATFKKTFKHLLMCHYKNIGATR
The experiment is described as follows: Receptor binding test in vitro, 3H-NMS displacement, whole heart homogenate. The settings on record: rat whole heart homogenate 1:400; 0.3 nanomolar 3H-NMS; 30° C., 45 minutes; read-out: Receptor Binding Tests IC50 Heart. The protocol:
(§5) The organs were donated by male Sprague-Dawley rats weighing 180-220 g. […] The whole heart was cut up with scissors. All the organs were then homogenised in a Potter apparatus.
as §4
(§6) Incubation lasted 45 minutes. The radioligand used was 0.3 nanomolar ^3 H-N-methylscopolamine (^3 H-NMS). […] The filters were rinsed with cold buffer and their radioactivity was determined. It represents the sum of specific and non-specific binding of ^3 H-NMS.
(§7) Each measurement was taken four times. […] They represent that concentration of test substance at which the specific binding of ^3 H-NMS to the muscarinic receptors in the various organs was inhibited by 50%.

The target of experiment [4] is T2, muscarinic receptors in submandibular gland (Rattus norvegicus, UniProt P08483).
T2 construct: All the organs were then homogenised in a Potter apparatus; from tissue; host or cells: submandibular gland of male Sprague-Dawley rats, homogenate diluted 1:400
T2 sequence (P08483 whole entry): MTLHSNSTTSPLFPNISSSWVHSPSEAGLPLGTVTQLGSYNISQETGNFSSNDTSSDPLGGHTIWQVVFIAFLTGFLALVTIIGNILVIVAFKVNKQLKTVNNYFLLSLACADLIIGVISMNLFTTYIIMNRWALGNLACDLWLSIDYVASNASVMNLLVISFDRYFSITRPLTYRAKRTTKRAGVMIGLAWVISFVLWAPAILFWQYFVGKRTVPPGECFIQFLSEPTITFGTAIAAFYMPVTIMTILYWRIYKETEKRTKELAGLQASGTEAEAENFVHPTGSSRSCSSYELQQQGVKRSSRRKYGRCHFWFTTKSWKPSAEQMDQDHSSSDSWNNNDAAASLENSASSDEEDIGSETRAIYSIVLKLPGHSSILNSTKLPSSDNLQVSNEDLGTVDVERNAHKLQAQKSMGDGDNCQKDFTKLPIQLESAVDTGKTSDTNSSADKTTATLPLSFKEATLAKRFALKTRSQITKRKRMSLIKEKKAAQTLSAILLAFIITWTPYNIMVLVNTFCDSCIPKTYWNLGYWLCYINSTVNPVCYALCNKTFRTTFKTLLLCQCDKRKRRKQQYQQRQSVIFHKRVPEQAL
Briefly: Receptor binding test in vitro, 3H-NMS displacement, submandibular gland homogenate. The settings on record: rat submandibular gland homogenate 1:400; 0.3 nanomolar 3H-NMS; 30° C., 45 minutes; read-out: Receptor Binding Tests IC50 Submandibular gland. The protocol: as §5, §4
Submandibular gland 1:400
as §6, §7

The test system of experiment [5] is acetylcholine effect on heart rate. The experiment is described as follows: Inhibition of the effect of acetylcholine on heart rate in anaesthetised guinea pigs. The note with it: Cavia porcellus, iv, 5 min, 10 microgram/kg acetylcholine i.v. and intra-arterially 5 minutes after test substance, heart rate by ECG, read-out: -log ED50 Heart (converted). The experiment is classed as in vivo, guinea pig. The protocol: as §1, §2, §3

Experiment [6] concerns acetylcholine effect on bladder. Briefly: Inhibition of the effect of acetylcholine on contraction of the exposed bladder in anaesthetised guinea pigs. The experiment is classed as in vivo, guinea pig. The settings on record: Cavia porcellus, iv, 5 min, 10 microgram/kg acetylcholine i.v. and intra-arterially 5 minutes after test substance, read-out: -log ED50 Bladder (converted). How it is done:
as §1, §2, §3

As a reminder, the ED50 is the dose that gives a 50% effect, or the effect in half of the subjects. As a reminder, the IC50 is the concentration that inhibits the measured activity by half. For the compound `CCN(CCCC(=O)N1CCC(C(=O)N(C)C)CC1)C(C)Cc1ccc(OC)cc1` (racemic) [A, (±)-1-[4-[ethyl[2-(4-methoxyphenyl)-1-methylethyl]amino]-1-oxobutyl]-N,N-dimethyl-4-piperidine carboxamide], the ED50 in experiment [1] is 0.148 µmol/kg; in experiment [5], 0.0646 µmol/kg; in experiment [6] it was 0.513 µmol/kg. The IC50 came out at 50 nM in experiment [2], 10 nM in experiment [3] and 300 nM in experiment [4].
As to `CN1[C@@H]2CC[C@H]1C[C@@H](OC(=O)C(CO)c1ccccc1)C2` (stereo partly shown) [B, atropine, reference compound], the 50% inhibitory concentration (IC50) in experiment [2] amounted to 2 nM.
